Measurements published in paper PMC11062899, “De novo development of small cyclic peptides that are orally bioavailable” (Nature Chemical Biology, 2023).
Several values for one entry are separate records, joined by “and”; a condition that tells them apart may be missing. Equal entries are not always repeated.

What was measured:
factor XIIa = target: T1, factor XIIa (Homo sapiens, UniProt P00748); assay: Target specificity profiling: factor XIIa; assay type: biochemical; conditions: replicates R1-R3
T1 construct: 5.3 nM factor XIIa (Molecular Innovations); purchased Molecular Innovations
Procedure: (§1) The protease specificity was assessed by testing the inhibition of a series of trypsin-like serine proteases using fluorogenic or chromogenic substrates. Peptide dilutions ranging from 40 μM to 40 nM were prepared for all proteases except thrombin (1 μM to 1 nM). […]. The following fluorogenic substrates were used at a final concentration of 50 μM: Z-Gly-Gly-Arg-AMC (Bachem) for thrombin and trypsin; Z-Phe-Arg-AMC (Bachem) for plasma kallikrein; Boc-Phe-Ser-Arg-AMC (Bachem) for factor XIa; and Boc-Gln-Gly-Arg-AMC (Bachem) for factor XIIa. […]. Reactions were performed in a volume of 150 μl in 96-well plates. A volume of 50 μl of twofold dilutions of macrocycle in assay buffer was pipetted into the wells of the plates. A volume of 50 μl of protease in assay buffer was added to each well and incubated for 15 min. A volume of 50 μl of substrate in assay buffer containing 3% DMSO was added. Fluorescence intensity was measured for 30 min using an Infinite M200 Pro plate reader (Tecan; excitation at 368 nm, emission at 467 nm), with one measurement every minute. For APC protease, absorbance was measured at 405 nm using the same plate reader for a period of 30 min with one reading every minute. Reactions were performed at 25 °C. Data were analyzed by Excel (version 2016).

plasma kallikrein = target: T2, plasma kallikrein (Homo sapiens, UniProt P03952); assay: Target specificity profiling: plasma kallikrein; assay type: biochemical; conditions: replicates R1-R3
T2 construct: 0.25 nM plasma kallikrein (Innovative Research); purchased Innovative Research
Procedure: as §1

thrombin = target: T3, thrombin (Homo sapiens, UniProt P00734); assay: Target specificity profiling: thrombin; assay type: biochemical; conditions: replicates R1-R3
T3 construct: […]; purchased Molecular Innovations
Procedure: as §1

factor XIa = target: T4, factor XIa (Homo sapiens, UniProt P03951); assay: Target specificity profiling: factor XIa; assay type: biochemical; conditions: replicates R1-R3
T4 construct: 1 nM factor XIa (Innovative Research); purchased Innovative Research
Procedure: as §1

[1] = target: T5, activated protein C (APC) (Homo sapiens, UniProt P04070); assay: Target specificity profiling: activated protein C; assay type: biochemical; conditions: replicates R1-R3
T5 construct: purchased Molecular Innovations
Procedure: as §1

[2] = Measurement of in vivo gastrointestinal stability in rats; design: species or system rat; conditions: for Concentration in organ extract: rat n = 1, 30 min after p.o. 10 mg kg^−1
Procedure: Peptide 43 was dissolved in 10% Cremophor EL and 5% DMSO in water at a concentration of 1 mg ml^−1 and administrated by oral gavage to a rat at a dose of 10 mg kg^−1. The rat was killed 30 min after the administration using a CO2 chamber followed by cervical dislocation. Stomach, small intestine (duodenum/jejunum and ileum were collected separately) and large intestine were removed and immediately frozen in pre-cooled containers on dry ice. Organs and their respective content were collected separately to facilitate homogenization and sample processing. The organs were homogenized using a mortar and pestle on dry ice and liquid nitrogen to avoid thawing of the samples. Peptides were extracted by addition of 2 ml of extraction buffer containing 50 mM Tris-HCl (pH 8.0), 150 mM NaCl, 5 mM EDTA, 0.01% Triton-X, 1 mM PMSF and protease inhibitor cocktail (Sigma-Aldrich, P8340) per gram of organ or organ content weight and sonicating the resulting suspension for 5 min. Samples were centrifuged at 16,000g for 10 min, and 40 μl of the resulting supernatant was mixed with 120 μl of a cold acetonitrile:water (9:1) solution containing an internal standard (5 μg ml^−1). Samples were analyzed and quantified by LC–MS as described above.

T5 sequence (P04070 212-461 limits assumed): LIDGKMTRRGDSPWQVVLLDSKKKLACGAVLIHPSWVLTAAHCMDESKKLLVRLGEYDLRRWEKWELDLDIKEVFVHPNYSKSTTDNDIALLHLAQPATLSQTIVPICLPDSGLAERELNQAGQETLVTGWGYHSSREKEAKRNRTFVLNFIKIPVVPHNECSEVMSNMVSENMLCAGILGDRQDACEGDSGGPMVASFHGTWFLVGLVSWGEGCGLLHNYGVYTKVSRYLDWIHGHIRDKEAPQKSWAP
T5 sequence (P04070 43-197 partner limits assumed): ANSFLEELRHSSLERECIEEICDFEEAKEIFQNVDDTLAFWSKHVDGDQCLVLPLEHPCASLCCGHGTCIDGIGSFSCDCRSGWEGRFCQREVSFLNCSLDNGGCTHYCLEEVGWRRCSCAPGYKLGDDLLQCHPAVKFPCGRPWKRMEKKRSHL
T1 sequence (P00748 373-615 limits assumed, other chains not shown): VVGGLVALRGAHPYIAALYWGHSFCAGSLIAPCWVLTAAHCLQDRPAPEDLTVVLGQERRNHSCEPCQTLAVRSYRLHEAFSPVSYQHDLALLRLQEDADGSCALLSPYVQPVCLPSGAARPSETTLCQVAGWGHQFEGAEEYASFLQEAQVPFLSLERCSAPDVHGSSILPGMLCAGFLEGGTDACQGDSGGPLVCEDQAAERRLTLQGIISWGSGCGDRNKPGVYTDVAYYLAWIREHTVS
T4 sequence (P03951 388-625 limits assumed): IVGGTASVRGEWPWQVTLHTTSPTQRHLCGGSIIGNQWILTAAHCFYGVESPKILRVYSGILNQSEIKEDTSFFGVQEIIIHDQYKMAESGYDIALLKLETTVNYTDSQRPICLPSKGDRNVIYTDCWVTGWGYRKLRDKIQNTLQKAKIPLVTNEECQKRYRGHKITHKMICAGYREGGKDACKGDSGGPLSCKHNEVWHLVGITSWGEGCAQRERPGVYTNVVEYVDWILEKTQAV
T4 sequence (P03951 19-387 partner limits assumed): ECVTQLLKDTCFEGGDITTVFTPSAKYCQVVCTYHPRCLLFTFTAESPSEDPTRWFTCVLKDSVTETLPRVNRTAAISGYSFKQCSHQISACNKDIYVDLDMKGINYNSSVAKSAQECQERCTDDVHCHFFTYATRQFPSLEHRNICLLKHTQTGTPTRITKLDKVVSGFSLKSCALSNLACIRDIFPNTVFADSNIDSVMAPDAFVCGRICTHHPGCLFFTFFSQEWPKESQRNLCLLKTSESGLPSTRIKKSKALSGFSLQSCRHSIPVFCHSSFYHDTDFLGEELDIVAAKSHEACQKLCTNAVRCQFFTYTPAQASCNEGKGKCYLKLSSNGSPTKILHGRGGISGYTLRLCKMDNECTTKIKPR
T2 sequence (P03952 391-638 limits assumed): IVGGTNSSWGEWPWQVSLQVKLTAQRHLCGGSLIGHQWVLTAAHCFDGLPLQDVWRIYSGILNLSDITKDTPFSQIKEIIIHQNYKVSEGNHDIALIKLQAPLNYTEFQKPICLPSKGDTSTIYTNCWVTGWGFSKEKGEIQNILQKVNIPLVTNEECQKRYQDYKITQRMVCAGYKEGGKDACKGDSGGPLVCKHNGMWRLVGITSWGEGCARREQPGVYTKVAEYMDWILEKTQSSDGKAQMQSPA
T2 sequence (P03952 20-390 partner limits assumed): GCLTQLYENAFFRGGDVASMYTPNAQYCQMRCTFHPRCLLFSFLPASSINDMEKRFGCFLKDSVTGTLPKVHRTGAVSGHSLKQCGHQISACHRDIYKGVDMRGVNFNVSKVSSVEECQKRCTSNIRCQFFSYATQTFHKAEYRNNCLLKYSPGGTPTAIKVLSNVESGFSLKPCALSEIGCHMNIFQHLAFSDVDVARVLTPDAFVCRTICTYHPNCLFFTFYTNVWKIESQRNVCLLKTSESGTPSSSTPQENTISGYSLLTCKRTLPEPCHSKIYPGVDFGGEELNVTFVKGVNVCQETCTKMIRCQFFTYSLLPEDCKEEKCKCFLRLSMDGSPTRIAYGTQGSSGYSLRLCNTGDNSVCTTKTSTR

O=C1C[C@H]2CCCN2C(=O)[C@H](Cc2ccccc2)NC(=O)[C@@H](NC(=O)c2ccc(Cl)cc2)CCC=CCCCCN1 (mixture of isomers) [peptide 46]
Residual protease activity, Factor XIIa (factor XIIa; inhibitor 1.00E+04 nM): 96.5 and 104.4 and 105.7
Residual protease activity, Factor XIIa (factor XIIa; inhibitor 1.25E+03 nM): 99.3 and 104.0 and 102.2
Residual protease activity, Factor XIIa (factor XIIa; inhibitor 1.56E+02 nM): 96.6 and 95.7 and 104.9
Residual protease activity, Factor XIIa (factor XIIa; inhibitor 2.00E+04 nM): 93.0 and 104.6 and 101.1
Residual protease activity, Factor XIIa (factor XIIa; inhibitor 2.50E+03 nM): 101.4 and 100.3 and 106.4
Residual protease activity, Factor XIIa (factor XIIa; inhibitor 3.12E+02 nM): 98.7 and 101.4 and 105.7
Residual protease activity, Factor XIIa (factor XIIa; inhibitor 3.91E+01 nM): 100.9 and 93.5 and 95.2
Residual protease activity, Factor XIIa (factor XIIa; inhibitor 4.00E+04 nM): 94.7 and 100.5 and 101.1
Residual protease activity, Factor XIIa (factor XIIa; inhibitor 5.00E+03 nM): 96.4 and 102.9 and 108.8
Residual protease activity, Factor XIIa (factor XIIa; inhibitor 6.25E+02 nM): 97.3 and 115.8 and 103.1
Residual protease activity, Factor XIIa (factor XIIa; inhibitor 7.81E+01 nM): 96.1 and 102.4 and 80.0
Residual protease activity, Plasma kallikrein (plasma kallikrein; inhibitor 1.00E+04 nM): 100.3 and 97.1 and 98.3
Residual protease activity, Plasma kallikrein (plasma kallikrein; inhibitor 1.25E+03 nM): 101.3 and 99.9 and 96.3
Residual protease activity, Plasma kallikrein (plasma kallikrein; inhibitor 1.56E+02 nM): 96.4 and 108.1 and 104.0
Residual protease activity, Plasma kallikrein (plasma kallikrein; inhibitor 2.00E+04 nM): 101.2 and 98.7 and 98.9
Residual protease activity, Plasma kallikrein (plasma kallikrein; inhibitor 2.50E+03 nM): 103.4 and 100.4 and 99.0
Residual protease activity, Plasma kallikrein (plasma kallikrein; inhibitor 3.12E+02 nM): 102.1 and 105.6 and 105.7
Residual protease activity, Plasma kallikrein (plasma kallikrein; inhibitor 3.91E+01 nM): 104.4 and 99.7 and 94.4
Residual protease activity, Plasma kallikrein (plasma kallikrein; inhibitor 4.00E+04 nM): 101.1 and 97.0 and 98.9
Residual protease activity, Plasma kallikrein (plasma kallikrein; inhibitor 5.00E+03 nM): 98.7 and 96.4 and 96.9
Residual protease activity, Plasma kallikrein (plasma kallikrein; inhibitor 6.25E+02 nM): 106.1 and 103.7 and 102.1
Residual protease activity, Plasma kallikrein (plasma kallikrein; inhibitor 7.81E+01 nM): 103.2 and 99.7 and 96.6
Residual protease activity, Thrombin (human) (thrombin; inhibitor 1.00E+03 nM): 3.9 and 4.0 and 3.8
Residual protease activity, Thrombin (human) (thrombin; inhibitor 1.25E+02 nM): 27.0 and 25.5 (2×)
Residual protease activity, Thrombin (human) (thrombin; inhibitor 1.56E+01 nM): 75.5 and 73.3 and 73.1
Residual protease activity, Thrombin (human) (thrombin; inhibitor 1.95E+00 nM): 95.2 and 97.7 and 95.3
Residual protease activity, Thrombin (human) (thrombin; inhibitor 2.50E+02 nM): 15.1 and 14.2 and 14.6
Residual protease activity, Thrombin (human) (thrombin; inhibitor 3.12E+01 nM): 59.3 and 58.1 and 56.4
Residual protease activity, Thrombin (human) (thrombin; inhibitor 3.91E+00 nM): 91.5 and 93.3 and 91.3
Residual protease activity, Thrombin (human) (thrombin; inhibitor 5.00E+02 nM): 7.6 and 7.4 (2×)
Residual protease activity, Thrombin (human) (thrombin; inhibitor 6.25E+01 nM): 44.1 and 42.5 and 42.8
Residual protease activity, Thrombin (human) (thrombin; inhibitor 7.81E+00 nM): 89.2 and 86.5 and 77.1
Residual protease activity, Thrombin (human) (thrombin; inhibitor 9.77E-01 nM): 99.8 and 102.7 and 98.9
Residual protease activity, Factor Xia (factor XIa; inhibitor 1.00E+04 nM): 95.7 and 95.4 and 95.1
Residual protease activity, Factor Xia (factor XIa; inhibitor 1.25E+03 nM): 96.1 and 95.1 and 96.0
Residual protease activity, Factor Xia (factor XIa; inhibitor 1.56E+02 nM): 107.0 and 105.2 and 107.6
Residual protease activity, Factor Xia (factor XIa; inhibitor 2.00E+04 nM): 93.9 and 90.3 and 94.5
Residual protease activity, Factor Xia (factor XIa; inhibitor 2.50E+03 nM): 100.7 and 100.4 and 101.9
Residual protease activity, Factor Xia (factor XIa; inhibitor 3.12E+02 nM): 89.3 and 92.0 and 107.2
Residual protease activity, Factor Xia (factor XIa; inhibitor 3.91E+01 nM): 99.1 and 100.7 and 101.5
Residual protease activity, Factor Xia (factor XIa; inhibitor 4.00E+04 nM): 101.0 and 99.6 and 99.1
Residual protease activity, Factor Xia (factor XIa; inhibitor 5.00E+03 nM): 104.3 and 104.7 and 110.9
Residual protease activity, Factor Xia (factor XIa; inhibitor 6.25E+02 nM): 94.0 and 96.1 and 97.6
Residual protease activity, Factor Xia (factor XIa; inhibitor 7.81E+01 nM): 100.7 and 100.8 and 101.1
Residual protease activity, APC ([1]; inhibitor 1.00E+04 nM): 101.7 and 94.1 and 93.6
Residual protease activity, APC ([1]; inhibitor 1.25E+03 nM): 93.2 and 97.3 and 95.1
Residual protease activity, APC ([1]; inhibitor 1.56E+02 nM): 95.1 and 104.3 and 101.7
Residual protease activity, APC ([1]; inhibitor 2.00E+04 nM): 94.9 and 98.4 and 96.8
Residual protease activity, APC ([1]; inhibitor 2.50E+03 nM): 94.9 and 96.5 and 96.6
Residual protease activity, APC ([1]; inhibitor 3.12E+02 nM): 95.1 and 90.6 and 94.4
Residual protease activity, APC ([1]; inhibitor 3.91E+01 nM): 96.3 and 96.7 and 99.0
Residual protease activity, APC ([1]; inhibitor 4.00E+04 nM): 95.7 and 97.0 and 95.5
Residual protease activity, APC ([1]; inhibitor 5.00E+03 nM): 98.3 and 99.0 and 99.1
Residual protease activity, APC ([1]; inhibitor 6.25E+02 nM): 100.4 and 91.2 and 89.1
Residual protease activity, APC ([1]; inhibitor 7.81E+01 nM): 108.2 and 108.3 and 107.3

O=C1C[C@H]2CCCN2C(=O)[C@H](Cc2ccccc2)NC(=O)[C@@H](NC(=O)c2ccc(Cl)s2)CCC=CCCCCN1 [peptide 43]
Concentration in organ extract ([2]; Large intestine - content): 656 nM
Concentration in organ extract ([2]; Large intestine): 500 nM
Concentration in organ extract ([2]; Lower small instestine - content): 2900 nM
Concentration in organ extract ([2]; Lower small instestine): 600 nM
Concentration in organ extract ([2]; Stomach - content): 87600 nM
Concentration in organ extract ([2]; Stomach): 31600 nM
Concentration in organ extract ([2]; Upper small instestine - content): 13100 nM
Concentration in organ extract ([2]; Upper small instestine): 2600 nM
in vivo gastrointestinal stability ([2]; rats, 10 mg kg^−1 p.o., 30 min, stomach, small and large intestine): large fraction of the peptide fully intact
